How the values were obtained:
[1] = test system: sodium channel binding site 2; parameters: species or system rat

| melting point [°C] | SMILES | Inhibition (BTX) Mean [% at 10 μM] [1] [%] |
| --- | --- | --- |
| – | CN(C)C(=O)[C@H](Cc1c[nH]c2ccccc12)NC1CCC(c2ccccc2)(N(C)C)CC1.Cl.Cl (stereo partly drawn) [Example 6, (S)-2-(4-(dimethylamino)-4-phenylcyclohexylamino)-3-(1H-indol-3-yl)-N,N-dimethylpropanamide dihydrochloride] | 15 |
| 71 to 74 | Cc1csc([C@@H](Cc2c[nH]c3ccccc23)NC2CCC(c3ccccc3)(N(C)C)CC2)n1 (stereo partly shown) | – |
| 195 to 228 | CN(C)C1(c2ccccc2)CCC(N(C(=O)C(F)(F)F)C(Cc2c[nH]c3ccccc23)c2nnn[nH]2)CC1 (stereo not shown) | – |
| 65 to 70 | Cc1cnc([C@@H](Cc2c[nH]c3ccccc23)NC2CCC(c3ccccc3)(N(C)C)CC2)o1 (stereo partly shown) | – |

From patent US8357705B2 (priority 2008, dated 2013)
